{"source": "patent US7790762B2", "about": "“Compounds and methods for thiol-containing compound efflux and cancer treatment” (National Jewish Health, priority 2002, dated 2010)", "key": {"[1]": {"system": "HL-60 cells", "assay": "Intracellular GSH levels by HPLC-EC in HL-60 cells", "format": "cell-based, human", "conditions": "24 hours treatment; for activity at 25 µM: Homo sapiens, HL-60, 25 μM, read-out: Int. GSH % con.", "experimental": "(§1) Cell lines and culture conditions. Human lung epithelial cancer (A549), human leukemia HL-60 and human prostate (PC-3) tumor cells were purchased from ATCC (Manassas, Va.). A549 and PC-3 cells were grown in Ham's F12 medium (F12) and Kaighn's modification of Ham's F12 medium (F12K) with 2 mM L-glutamine (ATCC), respectively, supplemented with 10% fetal bovine serum (FBS) and 5% pen/strep (10,000 unit, Cellgro). HL-60 cells were grown in Iscove's modified Dulbecco's medium with 4 mM L-glutamine (ATCC) supplemented with 20% FBS and 5% pen/strep. Cell were grown in T-75 flask at 37° C. and 5% CO2 air atmosphere and in 24-well plates for GSH levels and LDH release measurements.\n(§2) Intracellular levels of GSH. Intracellular GSH levels can be determined by HPLC-EC. Cultured cells from 24-well plates were washed once with 1 ml of PBS and then re-suspended in 0.5 ml of distilled water with 40 μM of digitonin (2 mM stock solution in DMSO) for 30 min at room temperature. Then, 50 μl of 10% meta-phosphoric acid were added (1% final concentration), the samples were sonicated for 2 min, centrifuged at 20,000 g for 10 min, and 0.2 ml of supernatant placed in vials for HPLC analysis. […] The flow rate was […]. The retention time for GSH in these conditions was 7.5 min. The HPLC instrument was from ESA, Inc. (Chelmsford, Mass.), equipped with an autosampler (model 540) and a Coul array detector (model 5600A). The potential applied was +0.75 V vs. H/Pd electrode, and the injection volume 5 μl."}, "[2]": {"system": "PC-3 cells", "assay": "Intracellular GSH levels by HPLC-EC in PC-3 cells", "format": "cell-based, human", "conditions": "PC-3, 25 μM, 24 hours treatment; for activity at 25 µM: Homo sapiens, read-out: Int. GSH % con.", "experimental": "as §1, §2"}, "[3]": {"system": "PC-3 cells", "assay": "Cytotoxicity as LDH release in PC-3 cells", "format": "cell-based, human", "conditions": "PC-3, 50 μM, 48 hours treatment; for LDH release, % of control at 50 µM: Homo sapiens, read-out: LDH rel. % con.", "experimental": "as §1\n(§3) Assessment of cytotoxicity. In one exemplary method, membrane integrity of A549, HL-60 and PC-3 cells was used as an index of drug-induced cytotoxicity, and was assessed by monitoring the release of cytosolic lactate dehydrogenase (LDH). LDH activity was measured in the culture medium and cell lysates (50 mM HEPES, Triton X-100 0.5%, pH 7) using a plate reader format as previously described (41). Briefly, 5 μl of cell culture supernatant and lysates were incubated with 0.24 mM NADH in a Tris/NaCl pH 7.2 buffer in 96-well plates for 5 min at 25° C. The reaction was started by the addition of 9.8 mM pyruvate and the consumption of NADH followed at 340 nm for 5 min at 30° C. Percent LDH release was calculated by the following: (supernatant LDH/supernatant LDH+lysate LDH)×100."}, "[4]": {"system": "A549 cells", "assay": "Cytotoxicity as LDH release in A549 cells", "format": "cell-based, human", "conditions": "48 hours treatment", "experimental": "as §1, §3"}, "[5]": {"system": "HL-60 cells", "assay": "Cytotoxicity as LDH release in HL-60 cells", "format": "cell-based, human", "conditions": "48 hours treatment", "experimental": "as §1, §3"}, "[6]": {"system": "A549 cells", "assay": "Extracellular GSH in culture supernatants of A549 cells (HPLC-FD, mBBr)", "format": "cell-based, human", "conditions": "25 μM, 2 hours of treatment (FIG. 19D)", "experimental": "Extracellular levels of GSH. Extracellular GSH in the culture media supernatants of A549, HL-60 and PC-3 cells were measured by an HPLC-FD method of GSH analysis after derivatization with monobromobimane (mBBr). […] The mixture was incubated in dark at room temperature for 30 min, and the reaction was stopped by addition of 10 μl of 70% perchloric acid. The samples were centrifuged at 16,000 g for 10 min and 0.18 ml of supernatant placed in vials for HPLC analysis. The HPLC column used was Synergi 4u Hydro-RP 80A (C18) (150×4.6 mm) from Phenomenex (Torrance, Calif.) and the mobile phase a mixture of 1% acetic acid in H2O (pH adjusted to 4.25 using NH4OH) with 7% acetonitrile. The flow rate was 1 ml·min^−1 and the injection volume 1 μl. The detector excitation and emission wavelengths were […], respectively. The retention time for the GSH derivative was 9.5 min."}, "[7]": {"system": "A549 cells", "assay": "Intracellular GSH levels by HPLC-EC in A549 cells", "format": "cell-based, human", "conditions": "A549, 25 μM; for activity at 25 µM: Homo sapiens", "experimental": "as §1, §2"}, "[8]": {"system": "epithelial cells", "assay": "Extracellular GSH transport, Transwell Studies (Table 3)", "format": "cell-based"}, "[9]": {"system": "epithelial cells", "assay": "Effects of compounds on extracellular GSH transport (Table 3)", "format": "cell-based"}, "[10]": {"assay": "Epithelial lining fluid (ELF) GSH concentration in dexamethasone treated mice", "format": "in vivo, Wild type (C57/B6) mice", "conditions": "1 mg/kg intraperitoneal daily for two days, BALF at 48 hours; mean±standard error", "experimental": "FIG. 17 Dexamethasone-Induced Changes in Epithelial Lining Fluid (ELF) Glutathione (GSH) Concentrations. Wild type (C57/B6) mice were given a 1 mg/kg dexamethasone (DEX) injection (intraperitoneal) daily for two days. Bronchoalveolar lavage fluid (BALF) was obtained at 48 hours after the first initial dose and GSH concentrations determined. BALF was obtained through a tracheal canula with a single 2.0 mL aliquots of phosphate-buffered saline (pH 7.4) that was instilled into the lung and withdrawn only once. The BALF was centrifuged at 4000×g to remove cells (i.e., alveolar macrophages). The cell-free BALF was acidified with metaphosphoric acid to a final concentration of 1% metaphosphoric acid and centrifuged at 20,000×g to pellet the precipitated proteins. GSH concentrations were determined by HPLC coupled with electrochemical detection. ELF concentrations of GSH were calculated from BALF concentrations multiplied by a dilution factor derived from the difference in serum and BALF urea concentrations. […] Data are shown as the mean±standard error for n≧4 with significance attained at p≦0.05.\nSerum and BALF Urea Concentrations. […] ELF concentrations are then calculated by multiplying the BALF concentrations by the dilution factor. Urea concentrations in the samples are determined using a commercially available reagent (Sigma Diagnostics 66-20; St. Louis, Mo.)."}, "[11]": {"conditions": "2 h, read-out: Intracellular GSH levels, % compared to control"}, "[12]": {"conditions": "24 hours treatment, read-out: Int. GSH % con."}}, "note": "Read-outs that look alike come from different tables or passages of the source. Marks after values point to notes of the source that are not given here.", "data": [{"smiles": "O=C(/C=C/c1ccccc1)c1ccccc1", "note": "[Chalcone]", "values": [{"measurement": "activity at 25 µM", "setting": "[1]", "value": 100, "unit": "%"}, {"measurement": "activity at 25 µM", "setting": "[2]", "value": 119, "unit": "%"}, {"measurement": "LDH release, % of control at 50 µM", "setting": "[3]", "value": 229, "unit": "%"}, {"measurement": "LDH release, % of control at 75 µM", "setting": "[4]; Homo sapiens, A549, 75 μM, read-out: LDH rel. % con.", "value": 150, "unit": "%"}, {"measurement": "LDH release, % of control at 50 µM", "setting": "[5]; Homo sapiens, HL-60, 50 μM, read-out: LDH rel. % con.", "value": 236, "unit": "%"}, {"measurement": "extracellular GSH levels", "setting": "[6]", "value": "increased levels of GSH in the supernatants"}, {"measurement": "activity at 25 µM", "setting": "[7]; [11]", "value": "48.5 ± 2.1", "unit": "%"}, {"measurement": "activity at 25 µM", "setting": "[7]; [12]", "value": "< 5", "unit": "%"}]}, {"smiles": "COc1ccc2c(c1)c(CC(=O)O)c(C)n2C(=O)c1ccc(Cl)cc1", "note": "[Indomethacin, 1-(4-chlorobenzoyl)-5-methoxy-2-methyl-1H-indole-3-acetic acid, reference compound]", "values": [{"measurement": "activity at 25 µM", "setting": "[1]", "value": 49, "unit": "%"}, {"measurement": "% Increase Over Control (extracellular GSH)", "setting": "[8]; 100 μM", "value": "136 ^a %"}, {"measurement": "activation at 100 µM", "setting": "[9]; Epithelial cell, 100 μM, read-out: % Increase Over Control (extracellular GSH)", "value": 235, "unit": "%"}, {"measurement": "activity at 25 µM", "setting": "[2]", "value": 75, "unit": "%"}, {"measurement": "LDH release, % of control at 50 µM", "setting": "[3]", "value": 122, "unit": "%"}, {"measurement": "LDH release, % of control at 50 µM", "setting": "[4]; Homo sapiens, A549, 50 μM, read-out: LDH rel. % con.", "value": 251, "unit": "%"}, {"measurement": "LDH release, % of control at 25 µM", "setting": "[5]; Homo sapiens, HL-60, 25 μM, read-out: LDH rel. % con.", "value": 126, "unit": "%"}, {"measurement": "activity at 25 µM", "setting": "[7]; [11]", "value": "71.4 ± 2.8", "unit": "%"}, {"measurement": "activity at 25 µM", "setting": "[7]; 4 h, read-out: Intracellular GSH levels, % compared to control", "value": "7.8 ± 1.2", "unit": "%"}, {"measurement": "activity at 25 µM", "setting": "[7]; [12]", "value": "< 5", "unit": "%"}]}, {"smiles": "C[C@@H]1C[C@H]2[C@@H]3CCC4=CC(=O)C=C[C@]4(C)[C@@]3(F)[C@@H](O)C[C@]2(C)[C@@]1(O)C(=O)CO", "note": "[Dexamethasone, 9-fluoro-11 b,17,21-trihydroxy-16a-methylpregna-1,4-diene-3,20-dione, reference compound]", "values": [{"measurement": "activation at 50 µM", "setting": "[9]; Epithelial cell, 50 μM, read-out: % Increase Over Control (extracellular GSH)", "value": 178, "unit": "%"}, {"measurement": "ELF concentrations of GSH", "setting": "[10]", "value": "75.3 ± 12.0", "unit": "µM"}]}, {"smiles": "COc1ccc(-c2coc3cc(O)cc(O)c3c2=O)cc1", "note": "[Biochanin A]", "values": [{"measurement": "Int. GSH % con.", "setting": "[1]; HL-60, 75 μM", "value": 20, "unit": "% con."}, {"measurement": "% Increase Over Control (extracellular GSH)", "setting": "[8]; 50 μM", "value": "174 ^a %"}, {"measurement": "% Increase Over Control (extracellular GSH)", "setting": "[9]; 50 μM", "value": "133 ^c %"}, {"measurement": "Int. GSH % con.", "setting": "[2]", "value": 81, "unit": "% con."}, {"measurement": "LDH rel. % con.", "setting": "[3]", "value": 127, "unit": "% con."}, {"measurement": "LDH rel. % con.", "setting": "[4]; A549, 75 μM", "value": 230, "unit": "% con."}, {"measurement": "LDH rel. % con.", "setting": "[5]; HL-60, 50 μM", "value": 133, "unit": "% con."}, {"measurement": "Intracellular GSH levels, % compared to control", "setting": "[7]; 4 h", "value": "36.8 ± 0.9", "unit": "%"}, {"measurement": "Int. GSH % con.", "setting": "[7]; 24 hours treatment", "value": "<5", "unit": "% con."}]}]}
